Paper PMC7115614 (European Journal of Medicinal Chemistry, 2019)

Legend:
[1] = test system: human embryonic lung (HEL) cells; conditions: Table 5
NOS2 = assay: Western blot, NOS2 in MCF-7 cells; assay type: cell-based, human; conditions: 0.08 μM, 24 and 48 h
hydroxy-HIF-1α (Pro564) = assay: Western blot, hydroxy-HIF-1α in MCF-7 cells; assay type: cell-based, human; conditions: 0.08 μM, 24 and 48 h
MCF-7 cells = assay: Annexin V assay for apoptosis/necrosis detection; assay type: cell-based, human; conditions: MCF-7, after 48 h, versus control

SMILES | Cytotoxicity Cell morphology (MCC) [1] [μM] | other results
O=c1[nH]c(=O)n([C@H]2C[C@H](O)[C@@H](CO)O2)cc1/C=C/Br [Brivudin, reference compound] | >300 | –
Nc1ccn(C[C@@H](CO)OCP(=O)(O)O)c(=O)n1.O.O [Cidofovir, reference compound] | >300 | –
C[Si](C)(C)c1cn(C[C@H](O)[C@H]2OC(=O)C(OCc3ccccc3)=C2OCc2ccccc2)nn1 [Compound 8b, 2,3-O,O-dibenzyl-6-deoxy-6-(4-trimethylsilyl-1,2,3-triazol-1-yl)-L-ascorbic acid] | 100 | –
O=C1O[C@H]([C@@H](O)Cn2cc(C3CC3)nn2)C(OCc2ccccc2)=C1OCc1ccccc1 [Compound 8k, 2,3-O,O-dibenzyl-6-[4-cyclopropyl-1,2,3-triazol-1-yl]-6-deoxy-L-ascorbic acid] | 100 | –
CCCCc1cn(C[C@H](O)[C@H]2OC(=O)C(OCc3ccccc3)=C2OCc2ccccc2)nn1 [Compound 8l, 2,3-O,O-dibenzyl-6-(4-butyl-1,2,3-triazol-1-yl)-6-deoxy-L-ascorbic acid] | 20 | –
CCCCCCCCCCc1cn(C[C@H](O)[C@H]2OC(=O)C(OCc3ccccc3)=C2OCc2ccccc2)nn1 [Compound 8m, 2,3-O,O-dibenzyl-6-(4-decyl-1,2,3-triazol-1-yl)-6-deoxy-L-ascorbic acid] | 20 | levels of NOS2 (NOS2): decreased levels; hydroxylated HIF-1α levels (hydroxy-HIF-1α (Pro564)): significant increase; increase in late apoptotic cell population (MCF-7 cells): 24.7%; increase of necrotic cell populations (MCF-7 cells): 7.92%
CC(C)(C)c1cn(C[C@H](O)[C@H]2OC(=O)C(OCc3ccccc3)=C2OCc2ccccc2)nn1 [Compound 8n, 2,3-O,O-dibenzyl-6-(4-tert-butyl-1,2,3-triazol-1-yl)-6-deoxy-L-ascorbic acid] | 100 | –
O=C1O/C(=C\Cn2cc(-c3cc(F)cc(F)c3)nn2)C(OCc2ccccc2)=C1OCc1ccccc1 [Compound 10d] | 100 | –
O=C1O/C(=C\Cn2cc(-c3ccc(Br)cc3)nn2)C(OCc2ccccc2)=C1OCc1ccccc1 [Compound 10e] | >100 | –
Cc1ccc(-c2cn(C/C=C3\OC(=O)C(OCc4ccccc4)=C3OCc3ccccc3)nn2)cc1 [Compound 10f] | 20 | –
COc1ccc(-c2cn(C/C=C3\OC(=O)C(OCc4ccccc4)=C3OCc3ccccc3)nn2)cc1 [Compound 10g] | >100 | –
COc1ccccc1-c1cn(C/C=C2\OC(=O)C(OCc3ccccc3)=C2OCc2ccccc2)nn1 [Compound 10h] | 100 | –
CC(C)(C)c1cn(C/C=C2\OC(=O)C(OCc3ccccc3)=C2OCc2ccccc2)nn1 [Compound 10n] | 100 | –
O=C1O/C(=C\Cn2cc(CCO)nn2)C(OCc2ccccc2)=C1OCc1ccccc1 [Compound 10p] | >100 | –
